Earlier results as cited in PMC5425492 (Clinical Pharmacokinetics, 2016).

Question: Which “Within-subject variability in glucose-lowering effect” value does the source give for insulin degludec here?
Answer: 20%

Question: Which “Within-subject variability in glucose-lowering effect” value does the source give for insulin detemir here?
Answer: 27%
